# Results as given in ChEMBL document CHEMBL1140907, “Derivatives of 5-nitro-furan-2-carboxylic acid carbamoylmethyl ester inhibit RNase H activity associated with HIV-1 reverse transcriptase” (J Med Chem, 2009).
# Calls of active or inactive are those of the source. The calls are words filed in the database; no cut-off is given here.
# Columns and labels:
# [1] = target: Human immunodeficiency virus type 1 reverse transcriptase (Human immunodeficiency virus 1) (UniProt Q72547); assay: (§1) Inhibition of HIV1 LAI clade B reverse transcriptase RNase H activity by real time monitoring assay
# [2] = Cytotoxicity against T cells at >25 uM by MTT assay; format: cell-based; settings: t-cell
# [3] = target: T1, Human immunodeficiency virus type 1 reverse transcriptase (Human immunodeficiency virus 1, UniProt Q72547); assay: Inhibition of HIV1 LAI clade C 93IN101 reverse transcriptase RNase H activity by real time monitoring assay
# [4] = target: T1, Human immunodeficiency virus type 1 reverse transcriptase; assay: Inhibition of HIV1 LAI CRF01 A_E s93JP-NH1 reverse transcriptase RNase H activity by real time monitoring assay; parameters: species or system 93JP-NH1
# [5] = target: Human immunodeficiency virus type 1 integrase (Human immunodeficiency virus 1) (UniProt Q7ZJM1); assay: Inhibition of HIV1 integrase by real time monitoring assay
# [6] = Inhibition of murine leukemia virus reverse transcriptase by real time monitoring assay
# [7] = target: T2, Ribonuclease H1 (Homo sapiens) (UniProt O60930); assay: Inhibition of human RNase H1 by real time monitoring assay
# T2 sequence (whole entry): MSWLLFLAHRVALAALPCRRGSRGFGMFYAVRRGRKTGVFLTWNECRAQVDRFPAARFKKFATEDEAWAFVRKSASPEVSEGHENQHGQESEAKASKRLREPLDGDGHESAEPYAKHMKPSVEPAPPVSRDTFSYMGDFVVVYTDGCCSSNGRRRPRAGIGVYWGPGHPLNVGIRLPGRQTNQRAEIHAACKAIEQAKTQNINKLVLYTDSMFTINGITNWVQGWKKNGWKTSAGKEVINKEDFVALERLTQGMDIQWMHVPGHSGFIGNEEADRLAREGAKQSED
# [8] = target: T1, Human immunodeficiency virus type 1 reverse transcriptase; assay: as §1
# [9] = Cytotoxicity against CD4-CXCR4 expressing human NP2 cells at >25 uM by MTT assay; format: cell-based
# [10] = tested on: Escherichia coli; assay: Inhibition of Escherichia coli RNase H by real time monitoring assay
# [11] = Cytotoxicity against IL2 and anti-CD3-stimulated CD4 expressing primary T cells at 25 to 30 uM by MTT assay; format: cell-based; settings: t-cell
# [12] = tested on: Human immunodeficiency virus 1; assay: Inhibition of HIV1 NL4-3 replication in CD4-CXCR4 expressing human NP2 cells assessed as decrease in p24 antigen production after 4 days by ELISA; settings: Human immunodeficiency virus 1, NL4-3, NP2, 96 h
# [13] = tested on: Human immunodeficiency virus 1; assay: Inhibition of HIV1 NL4-3 replication in CD4 expressing human T cells assessed as decrease in p24 antigen production at 25 uM after 4 days by ELISA; format: functional, organism-based; settings: T-cell
# Human immunodeficiency virus type 1 integrase (Human immunodeficiency virus 1), sequence (Q7ZJM1 as listed by the source): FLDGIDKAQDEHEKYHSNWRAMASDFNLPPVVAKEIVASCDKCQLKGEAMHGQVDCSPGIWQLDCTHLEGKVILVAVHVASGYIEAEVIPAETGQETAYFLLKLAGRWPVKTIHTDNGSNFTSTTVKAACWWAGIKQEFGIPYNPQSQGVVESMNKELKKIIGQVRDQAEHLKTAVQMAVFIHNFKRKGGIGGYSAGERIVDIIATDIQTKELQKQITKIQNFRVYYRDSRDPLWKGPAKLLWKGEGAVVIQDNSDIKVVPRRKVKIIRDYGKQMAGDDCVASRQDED
smiles,measurement,setting,value
CN(C)S(=O)(=O)c1cccc(NC(=O)COC(=O)c2ccc([N+](=O)[O-])o2)c1,Activity,[1],Active
CCOC(=O)c1sc(N(Cc2ccccc2)C(=O)COC(=O)c2ccc([N+](=O)[O-])o2)nc1C,Activity,[1],inactive
O=C(COC(=O)c1ccc([N+](=O)[O-])o1)Nc1ccc(F)cc1F,Activity,[1],inactive
O=C(COC(=O)c1ccc([N+](=O)[O-])o1)Nc1ncc(C(F)(F)F)cc1Cl,Activity,[1],Active
O=C(COC(=O)c1ccc([N+](=O)[O-])o1)NC12CC3CC(CC(C3)C1)C2,Activity,[2],50%
same,IC50,[3],26.5 µM
same,IC50,[4],3.8 µM
same,Activity,[5],inactive
same,IC50,[6],8.4 µM
same,Activity,[7],inactive
same,IC50,[8],29.6 µM
same,Activity,[9],50%
same,Activity,[10],inactive
same,Activity,[11],50%
O=C(COC(=O)c1cccnc1Cl)NC12CC3CC(CC(C3)C1)C2,Activity,[1],inactive
CCOC(=O)c1c(-c2cccs2)csc1NC(=O)COC(=O)c1ccc([N+](=O)[O-])o1,Activity,[1],inactive
O=C(COC(=O)c1ccc[nH]1)NC12CC3CC(CC(C3)C1)C2,Activity,[1],inactive
O=C(OCC(=O)N(CC1CCCO1)c1nc(-c2ccc(Br)cc2)cs1)c1ccc([N+](=O)[O-])o1 (centres undefined),Activity,[2],50%
same,IC50,[3],32.2 µM
same,IC50,[12],22.7 µM
same,Activity,[13],Active
same,IC50,[4],2.6 µM
same,Activity,[5],inactive
same,IC50,[6],8.6 µM
same,IC50,[8],26.7 µM
same,Activity,[9],50%
same,Activity,[10],inactive
same,Activity,[11],50%
Cc1ccc(NC(=O)COC(=O)c2ccc([N+](=O)[O-])o2)cc1S(=O)(=O)N1CCCCCC1,Activity,[1],Active
O=C(COC(=O)c1ccc([N+](=O)[O-])o1)Nc1cc(C(F)(F)F)cc(C(F)(F)F)c1,Activity,[1],Active
O=C(COC(=O)c1ccc([N+](=O)[O-])o1)Nc1nc2ccccc2s1,Activity,[1],Active
O=C1CCC(C(=O)OCC(=O)NC23CC4CC(CC(C4)C2)C3)N1 (centres undefined),Activity,[1],inactive
CCOC(=O)c1c(NC(=O)COC(=O)c2ccc([N+](=O)[O-])o2)sc(C)c1C,Activity,[1],inactive
Cc1ccc(NC(=O)COC(=O)c2ccc([N+](=O)[O-])o2)cc1,Activity,[1],inactive
O=C(COC(=O)c1ccc([N+](=O)[O-])o1)Nc1ccc(Cl)c(S(=O)(=O)N2CCOCC2)c1,Activity,[1],Active
O=C(COC(=O)c1ccccn1)NC12CC3CC(CC(C3)C1)C2,Activity,[1],inactive
O=C(COC(=O)c1cncc(Br)c1)NC12CC3CC(CC(C3)C1)C2,Activity,[1],inactive
CCOc1cc(N2CCOCC2)cc(OCC)c1NC(=O)COC(=O)c1ccc([N+](=O)[O-])o1,Activity,[1],inactive
O=C(COC(=O)c1ccc([N+](=O)[O-])o1)Nc1ccccc1F,Activity,[1],inactive
